Tests used:
[1] = target: human Gal-1 (hGal-1); test: Competitive binding assay: binding of biotinylated hGal-1 to microplate-adsorbed asialofetuin (ASF); settings: Activities on hGal-1; mean values of several measurements
How it was run: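 Compounds diluted in DMSO competed with biotinylated hGal-3 or hGal-1 (300-1000 ng/mL) for binding to plate-adsorbed asialofetuin for 3 h at 4° C. Bound galectin was detected with streptavidin-peroxidase (80 ng/mL, 1 h, 4° C) and ABTS substrate; IC50 reported as mean of several measurements.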

[2] = target: human Gal-3 (hGal-3) (Homo sapiens (Human), UniProt P17931); test: Competitive binding assay: binding of biotinylated hGal-3 to microplate-adsorbed asialofetuin (ASF); settings: Activity on hGal-3; mean values of several measurements
Sequence of human Gal-3 (hGal-3) (P17931 whole entry): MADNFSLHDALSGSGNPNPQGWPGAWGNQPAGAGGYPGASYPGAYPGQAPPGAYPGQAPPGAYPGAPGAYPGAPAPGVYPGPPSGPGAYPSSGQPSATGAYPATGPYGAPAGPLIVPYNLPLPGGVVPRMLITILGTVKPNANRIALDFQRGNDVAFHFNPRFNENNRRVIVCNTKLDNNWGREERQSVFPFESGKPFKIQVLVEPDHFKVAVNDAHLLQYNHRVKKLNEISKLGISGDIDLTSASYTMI
How it was run: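 Biotinylated hGal-3 (300-1000 ng/mL) bound to ASF-coated wells with serially diluted compound, 3 h at 4° C. After washing, bound protein was detected with streptavidin-peroxidase (80 ng/mL, 1 h, 4° C) and ABTS substrate; IC50 values are means of several measurements.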

Sequence of human Gal-1 (hGal-1) (P09382 2-135 limits assumed): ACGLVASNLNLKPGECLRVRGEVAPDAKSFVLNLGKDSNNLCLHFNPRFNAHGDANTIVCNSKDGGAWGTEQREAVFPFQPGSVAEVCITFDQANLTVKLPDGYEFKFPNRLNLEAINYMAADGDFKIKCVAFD

Row | SMILES | IC50 [1] | IC50 [2]
1 | CO[C@@H]1[C@@H](n2cc(-c3cc(F)c(F)c(F)c3)nn2)[C@@H](O)[C@@H](CO)O[C@@H]1Cc1cc(C2(C#N)CCCC2)on1 [Ex 1.276] | 5100 nM | 97 nM
2 | Cc1cc(-c2cn([C@H]3[C@@H](O)[C@@H](CO)O[C@H](CC4CC(C5CCN(C(=O)OC(C)(C)C)CC5)=NO4)[C@@H]3O)nn2)ccc1F (stereo partly shown) [Ex 1.99] | 471 nM | 400 nM
3 | CCOC(=O)N1CCC(c2cc(C[C@H]3O[C@H](CO)[C@H](O)[C@H](n4cc(-c5cc(F)c(Cl)c(F)c5)nn4)[C@H]3OC)no2)CC1 [Ex 1.199] | 5990 nM | 52 nM
4 | CO[C@@H]1[C@@H](n2cc(-c3cccc(F)c3)nn2)[C@@H](O)[C@@H](CO)O[C@@H]1Cc1cc(C2CCN(C(=O)OC(C)(C)C)CC2)on1 [Ex 1.228] | 790 nM | 200 nM
5 | CO[C@@H]1[C@@H](n2cc(-c3ccc(Cl)c(F)c3F)nn2)[C@@H](O)[C@@H](CO)O[C@@H]1Cc1cc(C(C)(C)C)on1 [Ex 1.190] | 4610 nM | 71 nM
6 | CO[C@@H]1[C@@H](n2cc(-c3ccc(Cl)c(F)c3F)nn2)[C@@H](O)[C@@H](CO)O[C@@H]1Cc1cc(C2(C)CCOCC2)on1 [Ex 1.271] | 1660 nM | 49 nM
7 | CO[C@@H]1[C@@H](n2cc(-c3ccc(C)c(F)c3F)nn2)[C@@H](O)[C@@H](CO)O[C@@H]1Cc1cc(C2CCN(S(C)(=O)=O)CC2)on1 [Ex 1.159] | 1530 nM | 57 nM
8 | CO[C@@H]1[C@@H](n2cc(-c3ccc(Cl)c(F)c3)nn2)[C@@H](O)[C@@H](CO)O[C@@H]1Cc1cc(C(C)(C)C)on1 [Ex 1.192] | 1880 nM | 200 nM
9 | CO[C@@H]1[C@@H](n2cc(-c3cc(F)cc(F)c3)nn2)[C@@H](O)[C@@H](CO)O[C@@H]1Cc1cc(C2CCN(C(=O)OC(C)(C)C)CC2)on1 [Ex 1.122] | 720 nM | 140 nM
10 | CO[C@@H]1[C@@H](n2cc(-c3cc(F)c(C)c(F)c3)nn2)[C@@H](O)[C@@H](CO)O[C@@H]1Cc1cc(C2CCN(S(C)(=O)=O)CC2)on1 [Ex 1.152] | 1510 nM | 39 nM
11 | COc1ccc(C2=NO[C@H](C[C@H]3O[C@H](CO)[C@H](O)[C@H](n4cc(-c5cc(F)c(F)c(F)c5)nn4)[C@H]3O)C2)cc1 [Ex 1.03] | 5450 nM | 310 nM
12 | CN=[S@](=O)(C(C)C)N1CCC(c2cc(C[C@H]3O[C@H](CO)[C@H](O)[C@H](n4cc(-c5cc(F)c(F)c(F)c5)nn4)[C@H]3OC)no2)CC1 [Ex 1.139] | 1130 nM | 42 nM
13 | COc1cc(OC)c(-c2cn([C@H]3[C@@H](O)[C@@H](CO)O[C@H](CC4CC(C5CCN(C(=O)OC(C)(C)C)CC5)=NO4)[C@@H]3O)nn2)cc1F (stereo partly shown) [Ex 1.111] | 11500 nM | 1660 nM
14 | CO[C@@H]1[C@@H](n2cc(-c3ccc(C)c(F)c3)nn2)[C@@H](O)[C@@H](CO)O[C@@H]1Cc1cc(C2CCOCC2)on1 [Ex 1.180] | 4930 nM | 180 nM
15 | CO[C@@H]1[C@@H](n2cc(-c3cc(F)c(F)c(F)c3)nn2)[C@@H](O)[C@@H](CO)O[C@@H]1Cc1cc(C2(O)CCC2)on1 [Ex 1.225] | 4850 nM | 530 nM
16 | COc1ccc(C2=NOC(C[C@H]3O[C@H](CO)[C@H](O)[C@H](n4cc(-c5cc(F)c(F)c(F)c5)nn4)[C@H]3O)C2)c(Cl)c1 (stereo partly shown) [Ex 1.13] | 6340 nM | 1110 nM

The next lines start with the values.

Row | IC50 [1] | IC50 [2] | SMILES
17 | 13700 nM | 2540 nM | O=C(O)[C@H]1CC[C@](O)(c2cc(C[C@H]3O[C@H](CO)[C@H](O)[C@H](n4cc(-c5cc(F)c(F)c(F)c5)nn4)[C@H]3O)no2)CC1 [Example 2.11, (1S,4s)-4-(3-(((2R,3R,4R,5R,6R)-3,5-dihydroxy-6-(hydroxymethyl)-4-(4-(3,4,5-trifluorophenyl)-1H-1,2,3-triazol-1-yl)tetrahydro-2H-pyran-2-yl)methyl)isoxazol-5-yl)-4-hydroxycyclohexane-1-carboxylic acid]
18 | 2200 nM | 190 nM | CO[C@@H]1[C@@H](n2cc(-c3cc(F)c(F)c(F)c3)nn2)[C@@H](O)[C@@H](CO)O[C@@H]1Cc1cc(C(C)(C)CN)no1 [Ex 1.316]
19 | 1770 nM | 490 nM | CO[C@@H]1[C@@H](n2cc(-c3cc(F)c(F)c(F)c3)nn2)[C@@H](O)[C@@H](CO)O[C@@H]1Cc1cc(C2(O)CCC2)no1 [Example 2.56, (2R,3R,4S,5R,6R)-6-((3-(1-hydroxycyclobutyl)isoxazol-5-yl)methyl)-2-(hydroxymethyl)-5-methoxy-4-(4-(3,4,5-trifluorophenyl)-1H-1,2,3-triazol-1-yl)tetrahydro-2H-pyran-3-ol]
20 | 590 nM | 45 nM | CO[C@@H]1[C@@H](n2cc(-c3cc(F)c(F)c(F)c3)nn2)[C@@H](O)[C@@H](CO)O[C@@H]1Cc1cc(C2CCN(C(=O)C3CCC3)CC2)on1 [Example 3.50, cyclobutyl(4-(3-(((2R,3R,4S,5R,6R)-5-hydroxy-6-(hydroxymethyl)-3-methoxy-4-(4-(3,4,5-trifluorophenyl)-1H-1,2,3-triazol-1-yl)tetrahydro-2H-pyran-2-yl)methyl)isoxazol-5-yl)piperidin-1-yl)methanone]
21 | 1880 nM | 45 nM | CO[C@@H]1[C@@H](n2cc(-c3cc(F)c(F)c(F)c3)nn2)[C@@H](O)[C@@H](CO)O[C@@H]1Cc1cc(C2CCN(S(=O)(=O)N3CCC(F)(F)CC3)CC2)on1 [Example 3.65, (2R,3R,4S,5R,6R)-6-((5-(1-((4,4-difluoropiperidin-1-yl)sulfonyl)piperidin-4-yl)isoxazol-3-yl)methyl)-2-(hydroxymethyl)-5-methoxy-4-(4-(3,4,5-trifluorophenyl)-1H-1,2,3-triazol-1-yl)tetrahydro-2H-pyran-3-ol]
22 | 640 nM | 53 nM | CC(C)(C)c1cc(C[C@H]2O[C@H](CO)[C@H](O)[C@H](n3cc(-c4ccc(F)c(F)c4F)nn3)[C@H]2O)on1 [Example 2.49, (2R,3R,4R,5R,6R)-2-((3-(tert-butyl)isoxazol-5-yl)methyl)-6-(hydroxymethyl)-4-(4-(2,3,4-trifluorophenyl)-1H-1,2,3-triazol-1-yl)tetrahydro-2H-pyran-3,5-diol]
23 | 6680 nM | 110 nM | CC(C)(C)c1cc(C[C@H]2O[C@H](CO)[C@H](O)[C@H](n3cc(-c4cc(F)c(F)c(F)c4)nn3)[C@H]2OCC(=O)N2CC[C@@H](O)C2)no1 [Example 2.39, 2-(((2R,3R,4S,5R,6R)-2-((5-(tert-butyl)isoxazol-3-yl)methyl)-5-hydroxy-6-(hydroxymethyl)-4-(4-(3,4,5-trifluorophenyl)-1H-1,2,3-triazol-1-yl)tetrahydro-2H-pyran-3-yl)oxy)-1-((R)-3-hydroxypyrrolidin-1-yl)ethan-1-one]
24 | 1510 nM | 440 nM | CO[C@@H]1[C@@H](n2cc(-c3cc(F)c(F)c(F)c3)nn2)[C@@H](O)[C@@H](CO)O[C@@H]1Cc1cc(C2CCN(C(=O)[C@@H](N)C(C)C)CC2)on1 [Example 3.54, (S)-2-amino-1-(4-(3-(((2R,3R,4S,5R,6R)-5-hydroxy-6-(hydroxymethyl)-3-methoxy-4-(4-(3,4,5-trifluorophenyl)-1H-1,2,3-triazol-1-yl)tetrahydro-2H-pyran-2-yl)methyl)isoxazol-5-yl)piperidin-1-yl)-3-methylbutan-1-one]
25 | 220 nM | 71 nM | CO[C@@H]1[C@@H](n2cc(-c3cc(F)c(F)c(F)c3)nn2)[C@@H](O)[C@@H](CO)O[C@@H]1Cc1cn(C2CCS(=O)(=NC3CCC(F)(F)CC3)CC2)nn1 (stereo partly drawn) [Example 4.33, 1-((4,4-difluorocyclohexyl)imino)-4-(4-(((2R,3R,4S,5R,6R)-5-hydroxy-6-(hydroxymethyl)-3-methoxy-4-(4-(3,4,5-trifluorophenyl)-1H-1,2,3-triazol-1-yl)tetrahydro-2H-pyran-2-yl)methyl)-1H-1,2,3-triazol-1-yl)hexahydro-1l6-thiopyran 1-oxide]
26 | 2270 nM | 1410 nM | COc1cccc(-c2cn([C@H]3[C@@H](O)[C@@H](CO)O[C@H](CC4CC(C5CCN(C(=O)OC(C)(C)C)CC5)=NO4)[C@@H]3O)nn2)c1 (stereo partly shown) [Ex 1.300]
27 | 2310 nM | 140 nM | CO[C@@H]1[C@@H](n2cc(-c3cc(F)c(F)c(F)c3)nn2)[C@@H](O)[C@@H](CO)O[C@@H]1CC1CN(C2CCN(S(=O)(=O)C(F)(F)F)CC2)C(=O)O1 (mixture of isomers) [Example 5.20, (RS)-5-(((2R,3R,4S,5R,6R)-5-hydroxy-6-(hydroxymethyl)-3-methoxy-4-(4-(3,4,5-trifluorophenyl)-1H-1,2,3-triazol-1-yl)tetrahydro-2H-pyran-2-yl)methyl)-3-(1-((trifluoromethyl)sulfonyl)piperidin-4-yl)oxazolidin-2-one]
28 | 1230 nM | 38 nM | CS(=O)(=O)N1CCC(c2cc(C[C@H]3O[C@H](CO)[C@H](O)[C@H](n4cc(-c5cc(F)c(F)c(F)c5)nn4)[C@H]3O)no2)CC1 [Example 3.28, (2R,3R,4R,5R,6R)-2-(hydroxymethyl)-6-((5-(1-(methylsulfonyl)piperidin-4-yl)isoxazol-3-yl)methyl)-4-(4-(3,4,5-trifluorophenyl)-1H-1,2,3-triazol-1-yl)tetrahydro-2H-pyran-3,5-diol]
29 | 100 nM | 12 nM | CO[C@@H]1[C@@H](n2cc(-c3cc(F)c(F)c(F)c3)nn2)[C@@H](O)[C@@H](CO)O[C@@H]1Cc1cn(C2CCN(S(C)(=O)=O)CC2)nn1 [Example 4.07, (2R,3R,4S,5R,6R)-2-(hydroxymethyl)-5-methoxy-6-((1-(1-(methylsulfonyl)piperidin-4-yl)-1H-1,2,3-triazol-4-yl)methyl)-4-(4-(3,4,5-trifluorophenyl)-1H-1,2,3-triazol-1-yl)tetrahydro-2H-pyran-3-ol]

Source: patent US12319672B2, “Alpha-D-galactopyranoside derivatives” (Idorsia Pharmaceuticals Ltd, priority 2019, dated 2025)
